Test results taken from patent US12239661B2, “Methods and compositions for treating undesired implanted tissue filler” (priority 2019, dated 2025).
Marks after values point to notes of the source that are not given here.

Key:
[1] = In vivo CT of filler nodule volume, density and 3D shape after test solutions 0-8 (Example 3); details: for Change in Volume as percent of Injected Volume, Day 14/15: Example 3 (Day 14); for Change in Volume as percent of Injected Volume, Day 14/15 / Change in Volume as percent of Injected Volume, Day 0 + 1 h 15 / Change in Volume as percent of Injected Volume, Day 0 + 2 h / Change in Volume as percent of Injected Volume, Day 0 + 4 h / Change in Volume as percent of Injected Volume, Day 1 / Change in Volume as percent of Injected Volume, Day 3 / Change in Volume as percent of Injected Volume, Day 7: mean; for Change in Volume as percent of Injected Volume, Day 0 + 1 h 15 / Change in Volume as percent of Injected Volume, Day 0 + 2 h / Change in Volume as percent of Injected Volume, Day 0 + 4 h / Change in Volume as percent of Injected Volume, Day 1 / Change in Volume as percent of Injected Volume, Day 3 / Change in Volume as percent of Injected Volume, Day 7: Example 3; for Change in Volume as percent of Injected Volume, Day 0 + 1 h 15: 1.5 mL solution into 500 μl nodule; for effect on volume at the filler injection site: after 7 and 14 days, vs untreated
Experimental: One hour after filler injections (T=1 h), 1.5 mL of selected solutions (Table 5, solutions 0-8, test items, solution 0 is normal saline and not hyperosmotic) were injected each into 9 dermal filler nodules in the right flank (ventral area).
A total of 7 CT-scans were performed at 1 h 15, 2 h, 4 h, 1 day (24 h), 3, 7 and 14 days after injection of the dermal filler. The clinical state of each animal is assessed once a week by body weight measurement and clinical observations.
The 10 SC injections of dermal filler on Day 0 were performed in the ventral area, (five nodules on each flank of the ventral area) for each pig. For each SC nodule, a theoretical volume of 500 μl was administered. One hour (±5 min) after injection of dermal filler, SC injection of the different solutions (prepared the day before) were performed into nine (9) nodules of dermal. For each SC nodule, a theoretical volume of 1.5 mL of test solution was administered.
The X-ray computed tomography acquisitions were performed with the Computed Tomography Scanner BrightSpeed 16 (General Electric). In order to measure the volume and the mean density and to visualize the 3D shape of the dermal filler (Radiesse® filler with or without test solution) injected, in vivo CT-scans were performed on Day 0: 1 h 15 (±10 min), 2 h (±15 min) and 4 h (±20 min), on Day 1 (24 h+1 h), Day 3, Day 7 and Day 14.
During CT acquisition on Day 0, the pigs received an IM injection of anesthesia. The animals were maintained under anesthesia until the CT acquisition at T=2 h (2 h after dermal filler injection session). Between these CT acquisitions, the animals were under surveillance in the recovery room on a heating mat with fluidotherapy. At the end of the CT acquisition at T=2 h, the pigs received a tattoo around each injected site. During the CT acquisitions at T=4 h and on Days 1, 3, 7 and 14, pigs received an IM injection of anesthesia. For the CT-scans, animals were positioned in dorsal recumbency and acquisitions were centered on the injection sites. The parameters of the CT-scan are described in Table 5.
The CT acquisition was analyzed with the software Avizo version 9.2.0. The objective of this analysis was to assess the degradation over time of the dermal filler injected by SC route after injection of different test solutions.
An image segmentation processing was performed on each CT acquisition. First, a manual pre-segmentation was performed around each nodule in order to roughly isolate the voxels corresponding to dermal filler product, which defined a Region of Interest (ROI). Second, an automatic segmentation was applied on the previously defined ROI using a global grey level thresholding procedure.
On day 0, a farm pig received ten (10) SC injections of Radiesse® dermal filler 0.5 mL (ventral area) (10 nodules in total). One hour after filler injections (T=1 h), 1.5 mL of one of eight test hyperosmotic solutions (1-8 solutions, Table 5) was injected at an injection site. One injection site was untreated and one injection site was treated with normal saline (0.9% wt/v NaCl).

[2] = X-ray CT of volume, mean density and 3D shape of Radiesse nodules and injected hyperosmotic solutions (Example 4); type: in vivo, Pig (Sus scrofa domesticus)
Experimental: Pigs are injected by SC route with Radiesse® filler without Lidocaine (Test item). One hour after the Radiesse® filler injection, selected different hyperosmotic solutions are injected by SC route into the dermal filler nodules. For two Radiesse® filler nodules per pig, no additional product is injected; these nodules are used as controls.
The evolution over time of the volume and mean density of the Radiesse® filler nodules with injection of the different solutions are assessed by CT-scanner at selected time points: on Day 0, at about 1 hour (h) and 15 minutes (min), 2 h and 4 h after the Radiesse® filler injection and solution injection, and then, on Day 1 (about 24 h after Radiesse® filler injection), Day 3, Day 7 and Day 15.
On Day 0, 4 pigs received ten (10) SC injections of Radiesse® dermal filler (P20WK-EE-01) of about 500 μl/nodule in the flank (ventral area) at T=0. One hour after Radiesse® dermal filler injections (T=1 h), about 1.5 ml of different hyperosmotic solutions (P20WK-EE-02 to P20WK-EE-05) were each injected into 8 Radiesse® filler nodules. Two Radiesse® filler nodules per animal were not injected with hyperosmotic solution and served as controls.
A total of 7 CT-scans were performed at 1 h 15±10 min, 2 h±15 min, 4 h±20 min, 1 day (24 h±1 h), 3, 7 and 15 days after injection of the dermal filler, as described in FIG. 9A.
On Day 0 (TO), 10 SC injections of test item P20WK-EE-01 (Radiesse® dermal filler) were performed in the ventral area (five nodules on each flank of the ventral area). For each SC nodule, a theoretical volume of 500 μL was administered. One hour (±5 min) after injection of dermal filler, SC injections of the different solutions (prepared on Day −3) were performed into 8 nodules of dermal filler. For each injection of solution, a theoretical volume of 1.5 mL was administered (see, e.g., injection scheme in Table 11).
In order to measure the volume, the mean density and to visualize the 3D shape of the dermal filler SC injected (in presence or absence of different hyperosmotic solutions), in vivo CT-scans were performed on Day 0: 1 h 15 (±10 min), 2 h (±15 min) and 4 h (±20 min), on Day 1 (24 h±1 h), Day 3, Day 7 and Day 15.
The CT acquisitions are analyzed with the software Avizo version 9.2.0. The objective of this analysis was to assess the dispersion over time of the Radiesse® dermal filler injected by SC route after injection of different hyperosmotic solutions.
To achieve this goal, the evolution of these parameters is observed over time: • the volume of each nodule (Radiesse® dermal filler and solution separately), • the mean density of each nodule (Radiesse® dermal filler and solution separately), • the 3D shape of each nodule by visualization of the 3D model of each nodule at each time point (Radiesse® dermal filler with or without solution separately). Segmentation:
An image segmentation is performed on each CT acquisition on the […] reconstruction. At first, a manual pre-segmentation is performed around each nodule in order to roughly isolate the voxels corresponding to Radiesse® dermal filler and hyperosmotic solutions and defined a Region of Interest (ROI). Secondly, an automatic segmentation is applied on the ROI previously defined using a global grey level thresholding procedure. […] Similarly, all the voxels having a grey level between these HU values are selected in a ROI and corresponds to the pure solution or solution containing some dispersed Radiesse® dermal filler (see, FIG. 10).
Then, a 3D model of these selected voxels (see, FIG. 11) is obtained allowing the calculation of the total volume (in mm^3) and the mean density (in HU) of the two defined compartments of each nodule of Pure Radiesse® dermal filler and of each solution containing or not containing dispersed Radiesse® dermal filler.
The volume (in mm^3) of the ROI of Radiesse® dermal filler and the solutions corresponding to each nodule and the mean density (in HU) of each nodule are calculated at each time point.

[3] = listed as Hyperosmotic Saline (sol 1)

Compound	Change in Volume as percent of Injected Volume, Day 14/15 [1]	Change in Volume as percent of Injected Volume, Day 0 + 2 h [1] [%]	Change in Volume as percent of Injected Volume, Day 0 + 4 h [1]	Change in Volume as percent of Injected Volume, Day 1 [1] [%]	Change in Volume as percent of Injected Volume, Day 3 [1]	Change in Volume as percent of Injected Volume, Day 7 [1]	Change in Volume as percent of Injected Volume, Day 0 + 1 h 15 [1]	other results
[Cl-].[Na+] [sol 1, Sodium chloride]								Change in Volume as percent of Injected Volume, Day 14/15 [1, 3]: 175.89* percent; Change in Volume as percent of Injected Volume, Day 0 + 1 h 15 [1, 3]: 161.28* percent; Change in Volume as percent of Injected Volume, Day 0 + 2 h [1, 3]: 157.58%; Change in Volume as percent of Injected Volume, Day 0 + 4 h [1, 3]: 164.59* percent; Change in Volume as percent of Injected Volume, Day 1 [1, 3]: 202.75%; Change in Volume as percent of Injected Volume, Day 3 [1, 3]: 199.27%; Change in Volume as percent of Injected Volume, Day 7 [1, 3]: 192.06* percent; effect on volume at the filler injection site ([1]; listed as hyperosmotic NaCl): significant decreased volume
O.O.O=P([O-])(O)O.[Na+] [sol 2, Sodium dihydrogen phosphate dihydrate]	179.72* percent	151.58	164.27%	198.42	201.11%	201.97%	156.57%	
CC(=O)[O-].[Na+] [sol 3, Sodium acetate]	176.61* percent	154.89	165.88%	202.12	197.50* percent	189.13* percent	152.73%	
O.O.O.O.O.O.O.O=S(=O)([O-])[O-].[Mg+2] [sol 5, Magnesium sulfate heptahydrate]	186.95%	159.33	158.84* percent	188.43	206.26* percent	202.32%	170.49* percent	
OCC(O)CO [sol 6, Glycerol]	173.93* percent	156.43	184.92%	200.32	197.65* percent	197.62* percent	151.48%	
OC[C@H]1O[C@@](CO)(O[C@H]2O[C@H](CO)[C@@H](O)[C@H](O)[C@H]2O)[C@@H](O)[C@@H]1O [sol 8, Sucrose]	180.45%	167.63	190.95%	202.96	207.85%	199.72%	167.87* percent	effect on volume at the filler injection site [1]: trend to decrease volume of filler
O.O.O=C([O-])CC(O)(CC(=O)[O-])C(=O)[O-].[Na+].[Na+].[Na+] [sol 9, Sodium citrate, dihydrate]								Change in Volume as percent of Injected Volume, Day 14/15 ([2]; Example 4 (Day 15), mean): 1969%; Change in Volume as percent of Injected Volume, Day 0 + 1 h 15 ([2]; Example 4, mean): 1488%; Change in Volume as percent of Injected Volume, Day 0 + 2 h ([2]; Example 4, mean): 1571%; Change in Volume as percent of Injected Volume, Day 0 + 4 h ([2]; Example 4, mean): 1901%; Change in Volume as percent of Injected Volume, Day 1 ([2]; Example 4, mean): 2210%; Change in Volume as percent of Injected Volume, Day 3 ([2]; Example 4, mean): 2010%; Change in Volume as percent of Injected Volume, Day 7 ([2]; Example 4, mean): 2243%; average of the mean density of solution nodules, T=1 h 15 ([2]; between −100 HU and 250 HU): 18.4±7.0 HU; average of the mean density of solution nodules, T=2 h ([2]; between −100 HU and 250 HU): 2.1±7.9 HU; mean volume of solution with potential dispersed Radiesse, T=2 h ([2]; between −100 HU and 250 HU): 4319.7±989.2 mm^3; variation of the average of the mean density of solutions, Day 15 compared to T=1 h 15 ([2]; between −100 HU and 250 HU): 347.7%; average of the mean density of nodules, Day 1 ([2]; pure Radiesse >250 HU): 447.0±34.1 HU; average of the mean density of nodules, Day 3 ([2]; pure Radiesse >250 HU): 478.2±64.8 HU
